Measured values published in ChEMBL document CHEMBL1201862, “PubChem BioAssay data set” (2004).
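Cultured in 96-well plates, cells were exposed to test compound for 48 hours across five concentrations. GI50: concentration for 50% inhibition of growth.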 Activity calls are given as the source filed them. No stated cut-off is given here; in the data, active = GI50 up to about 1.1 µM and inactive = higher.

Columns and labels:
Assay in all cases: DTP human tumour cell line panel, 48 h
A549 = test system: A549
CCRF-CEM = test system: CCRF-CEM
COLO 205 = test system: COLO 205
HCT-116 = test system: HCT-116
HOP-92 = test system: HOP-92
IGROV-1 = test system: IGROV-1
LXFL 529 = test system: LXFL 529
MCF7 = test system: MCF7
MOLT-4 = test system: MOLT-4
NCI-H522 = test system: NCI-H522
OVCAR-3 = test system: OVCAR-3
RPMI-8226 = test system: RPMI-8226
SF-539 = test system: SF-539
SK-MEL-5 = test system: SK-MEL-5
SK-OV-3 = test system: SK-OV-3
SN12C = test system: SN12C
SR = test system: SR
SW-620 = test system: SW-620
T47D = test system: T47D
TK-10 = test system: TK-10

Row | Compound | GI50 (A549) | GI50 (CCRF-CEM) | GI50 (COLO 205) | GI50 (HCT-116) | GI50 (HOP-92) | GI50 (IGROV-1) | GI50 (LXFL 529) | GI50 (MCF7) | GI50 (MOLT-4) | GI50 (NCI-H522) | GI50 (OVCAR-3) | GI50 (RPMI-8226) | GI50 (SF-539) | GI50 (SK-MEL-5) | GI50 (SK-OV-3) | GI50 (SN12C) | GI50 (SR) | GI50 (SW-620) | GI50 (T47D) | GI50 (TK-10)
1 | COC(=O)c1ccc(NCc2cc(O)ccc2O)cc1 | 14.5 µM (inactive) | 1.51 µM (inactive) | 12.6 µM (inactive) | 17.4 µM (inactive) | 13.3 µM (inactive) | 9.89 µM (inactive) | 5.06 µM (inactive) | 6.21 µM (inactive) | 3.19 µM (inactive) | 0.841 µM (active) | 10.9 µM (inactive) | 1.69 µM (inactive) | 5.46 µM (inactive) | 9.71 µM (inactive) | 14 µM (inactive) | 16.5 µM (inactive) | 1.58 µM (inactive) | 9.18 µM (inactive) | 1.65 µM (inactive) | 17.5 µM (inactive)
2 | O=C1C=CC(=O)c2c1c1c(c3c2C2c4ccccc4C3c3ccccc32)C2c3ccccc3C1c1ccccc12 | 8.69 µM (inactive) | 0.368 µM (active) | 1.5 µM (inactive) | 1.56 µM (inactive) | 1.08 µM (active) | 7.06 µM (inactive) | 1.08 µM (active) | 1.27 µM (inactive) | 0.836 µM (active) | 0.515 µM (active) | 1.77 µM (inactive) | 1.79 µM (inactive) | 5.15 µM (inactive) | 3.3 µM (inactive) | 15 µM (inactive) | 3.67 µM (inactive) | 1.95 µM (inactive) | 0.914 µM (active) | 1.41 µM (inactive) | 1.87 µM (inactive)
3 | C=C1CC2OC2(C(=O)O[C@H]2CCC3[C@@H]4CCC5=CC(=O)CC[C@]5(C)C4CC[C@@]32C)C1=O (some centres undefined) | 21.3 µM (inactive) | 0.804 µM (active) | 4.1 µM (inactive) | 5.81 µM (inactive) | 9.75 µM (inactive) | 10.9 µM (inactive) | 2.18 µM (inactive) |  | 1.49 µM (inactive) | 2.47 µM (inactive) | 8.51 µM (inactive) | 1.47 µM (inactive) | 9.33 µM (inactive) | 11.8 µM (inactive) | 20 µM (inactive) | 6.52 µM (inactive) | 0.805 µM (active) | 3.4 µM (inactive) | 3.3 µM (inactive) | 6.49 µM (inactive)
